These results are taken from patent US20260062422A1 (Halda Therapeutics OpCo, Inc., priority 2022, published 2026).

For one test, the target named is T1, BRD4-BD1 (Homo sapiens, UniProt O60885).
T1 construct: made in house; host or cells: T7 phage grown in an E. coli host derived from BL21
As to the kind of experiment: bromoKdELECT assay for binding affinity to BRD4-BD1. Conditions: Table 6.

A short description of test [1]: Cellular growth inhibition, T-Rex 293 SC cells with doxycycline (progesterone receptor isoform B induced), Example 45. To be noted: progesterone receptor isoform B induced with 10 ng/mL doxycycline, 72 hours, CellTiter-Glo 2.0, Table 11. The test is classed as cell-based. For orientation: In ATP-based viability assays light output follows the ATP content of the culture.

Test [2] deals with T-Rex 293 cell line SC cells lacking increased expression of progesterone receptor isoform B protein. The test is described as follows: Cellular growth inhibition, T-Rex 293 SC cells without doxycycline, Example 45. The test is classed as cell-based. Conditions: T-Rex 293 SC cells not exposed to doxycycline, 72 hours treatment, CellTiter-Glo 2.0.

Molecules are shown by their SMILES. A value given as a limit tells only on which side of the number the result lay.

By Kd is commonly meant the equilibrium constant for the complex coming apart. Read a high Kd as lower affinity. One may read the GI50 as the concentration that inhibits growth by half. A high value points to less potent growth inhibition. As to `Cc1sc2c(c1C)C(c1ccc(CCCOC3CCN(c4ncc(C(=O)N[C@H]5C(C)(C)[C@H](Oc6ccc(C#N)c(Cl)c6)C5(C)C)cn4)CC3)cc1)=N[C@@H](Cc1ncco1)c1nnc(C)n1-2` [Compound I-131, N-[3-(3-chloro-4-cyano-phenoxy)-2,2,4,4-tetramethyl-cyclobutyl]-2-[4-[3-[4-[(9S)-4,5,13-trimethyl-9-(oxazol-2-ylmethyl)-3-thia-1,8,11,12-tetrazatricyclo[8.3.0.02,6]trideca-2(6),4,7,10,12-pentaen-7-yl]phenyl]propoxy]-1-piperidyl]pyrimidine-5-carboxamide], the equilibrium dissociation constant (Kd) on BRD4-BD1 was above 2500 nM. Moreover, the GI50 in test [1] and in test [2] was below 500 nM throughout.
`COCC[C@@H]1N=C(c2ccc(CCCOC3CCN(c4ncc(C(=O)N[C@H]5C(C)(C)[C@H](Oc6ccc(C#N)c(Cl)c6)C5(C)C)cn4)CC3)cc2)c2c(sc(C)c2C)-n2c(C)nnc21` [Compound I-227, N-[3-(3-chloro-4-cyano-phenoxy)-2,2,4,4-tetramethyl-cyclobutyl]-2-[4-[3-[4-[(9S)-9-(2-methoxyethyl)-4,5,13-trimethyl-3-thia-1,8,11,12-tetrazatricyclo[8.3.0.02,6]trideca-2(6),4,7,10,12-pentaen-7-yl]phenyl]propoxy]-1-piperidyl]pyrimidine-5-carboxamide] displayed a dissociation constant (Kd) at BRD4-BD1 above 2500 nM. The concentration for 50% growth inhibition (GI50) in test [1] was below 500 nM; in test [2], 500 to 1500 nM.
On to `Cc1sc2c(c1C)C(c1ccc(CCCOC3CCN(c4ncc(C(=O)N[C@H]5C(C)(C)[C@H](Oc6ccc(C#N)c(Cl)c6)C5(C)C)cn4)CC3)cc1)=N[C@@H](C)c1nnc(C)n1-2` [Compound I-228, N-[3-(3-chloro-4-cyano-phenoxy)-2,2,4,4-tetramethyl-cyclobutyl]-2-[4-[3-[4-[(9S)-4,5,9,13-tetramethyl-3-thia-1,8,11,12-tetrazatricyclo [8.3.0.02,6]trideca-2(6),4,7,10,12-pentaen-7-yl]phenyl]propoxy]-1-piperidyl]pyrimidine-5-carboxamide], for which, on BRD4-BD1, the Kd lay within 500 to 2500 nM. Besides, the GI50 in test [1] was below 500 nM; in test [2] it was 500 to 1500 nM.
Taken in the same sequence, the figures for `Cc1sc2c(c1C)C(c1ccc(OCCOC3CCN(c4ncc(C(=O)N[C@H]5C(C)(C)[C@H](Oc6ccc(C#N)c(Cl)c6)C5(C)C)cn4)CC3)cc1)=N[C@@H](CC(=O)OC(C)(C)C)c1nnc(C)n1-2` [Compound I-235, tert-butyl 2-((S)-4-(4-(2-((1-(5-(((1r,3r)-3-(3-chloro-4-cyanophenoxy)-2,2,4,4-tetramethylcyclobutyl)carbamoyl)pyrimidin-2-yl)piperidin-4-yl)oxy)ethoxy)phenyl)-2,3,9-trimethyl-6H-thieno[3,2-f][1,2,4]triazolo[4,3-a][1,4]diazepin-6-yl)acetate] were above 2500 nM, below 500 nM and below 500 nM.
